Measurements as given in PubChem BioAssay AID602164 (The Scripps Research Institute Molecular Screening Center, 2012).

These compounds were tested on 2B4/Mcl-1 cells apoptosis, absorbance viability (assay: apoptosis induction in Mcl-1-dependent versus Bcl-2 cells, late-stage follow-up, selectivity assay for MCL1-BIM inhibitor project, cell-based, absorbance, 2B4/Mcl1 vs 2B4/Bcl-2 (AID 602164)).
CN1CCN(C(c2ccc(F)cc2)c2ccc3cccnc3c2O)CC1 (stereo not drawn) gave an IC50 of 4 µM. Compound OCCN1CCN(C(c2cccs2)c2ccc3cccnc3c2O)CC1 (stereo not drawn) has an IC50 of 5.1 µM. For Oc1c(C(c2cccs2)N2CCCCC2)ccc2cccnc12 (stereo not drawn), the IC50 was 4.4 µM. With Oc1c(C(Nc2ccccn2)c2cccs2)ccc2cccnc12 (stereo not drawn) the IC50 was 3.1 µM. With Cc1ccnc(NC(c2cccs2)c2ccc3cccnc3c2O)c1 (stereo not drawn) the IC50 was 2.4 µM. For Oc1c(C(c2cccs2)N2CCN(c3ccccn3)CC2)ccc2cccnc12 (stereo not drawn), the IC50 was 3.7 µM. CCN1CCN(C(c2cccs2)c2ccc3cccnc3c2O)CC1 (stereo not drawn) was tested, and the IC50 was 3.8 µM. Compound CC(C)Oc1ccc(C(Nc2ccccn2)c2ccc3cccnc3c2O)cc1 (stereo not drawn) has an IC50 of 2.3 µM.
